How the values were obtained:
[1] = test system: intracellular protein kinase C (PKC) in Jurkat cells; test: pseudo-RACK1-induced optical signals of Jurkat cells anchored on RWG biosensor surfaces; assay type: cell-based, human
Text: The Jurkat cells, which present antigens at the cell's surface, were contacted with four different surface types: a bare waveguide substrate having a thin layer of silicon oxide (i.e., SiOx/Nb2O5, uncoated biosensor substrate) (810), a SiOx/Nb2O5 surface having anti-human CD3 (anti-CD3) (820), a SiOx/Nb2O5 surface having amino-reactive polymer EMA coating (EMA) (830), and a SiOx/Nb2O5 surface having covalently coupled anti-human CD3 (i.e., anti-CD3-EMA) (840). The anti-CD3 surface was achieved by incubating a solution containing anti-human CD3 antibody (25 μg/ml) onto the bare SiOx/Nb2O5 surface for 1 hour, followed by washing and drying. The EMA surface was prepared as described above, i.e., by sequentially coating the bare SiOx/Nb2O5 surface with aminopropylsilane and then EMA. The anti-CD3/EMA surface was prepared by incubating anti-human CD3 (25 μg/ml) solution with the EMA surface for 1 hour, followed by blocking with ethanolamine at 1% for 1 hour. The Jurkat cells were incubated on either surface for about 2 hours before assays. The kinetic response, before and after the pseudo-RACK1 addition, was recorded in real time.
Pseudo-RACK1 is a peptide (OH-lys-lys-trp-lys-met-arg-arg-asn-gln-phe-trp-ile-lys-ile-gln-arg-cys----cys-ser-val-glu-ile-trp-asp-OH) and activates intracellular protein kinase C (PKC).

CHO-KCNQ cells = test: ATP-induced DMR signals of CHO-KCNQ cells on RWG biosensor; assay type: cell-based, Chinese hamster
Description: Referring to the Figures, FIGS. 1A and 1B show cross-sectional configurations of two examples of RWG biosensors used for living cell sensing. In FIG. 1A a cell (10) is directly cultured onto the unmodified or bare surface of the waveguide thin film (15) of a RWG biosensor (18) having a waveguide grating atop a substrate. In FIG. 1B a cell (10) is cultured onto the surface of an inorganic thin film (19) which has been previously deposited onto the surface of the waveguide thin film (15). Here a thin film of silicon oxide of about 1 nm to about 5 nm is directly deposited onto the surface of a waveguide thin film of niobium oxide by vapor deposition method. Each biosensor associated cell has an approximate penetration depth (20). […] CHO-KCNQ is an engineered CHO cell having over-expressed a potassium ion channel KCNQ2. FIGS. 2A and 2B compare the ATP-induced DMR signals, response units versus time, of CHO-KCNQ cells: The FIG. 2A cells were cultured on an unmodified or bare niobia surface of the waveguide thin film of a Corning® Epic™ RWG biosensor; and FIG. 2B cells were cultured on a biosensor having, for example, a discontinuous thin film modified waveguide surface of silicon dioxide particles. […]

[2] = test system: endogenous P2Y receptors in HEK 293 cells; test: ATP-induced DMR signals of HEK293 cells on coated RWG biosensor surfaces; assay type: cell-based, human
Text: Three surface densities were individually prepared by slow evaporation of 0.0015%, 0.1% and 1.5 weight % gelatin solutions, as described above, covering the biosensor surfaces. The resultant respective gelatin surfaces were referred to as low-, medium-, and high-density gelatin surfaces, respectively. HEK293 cells were separately cultured onto these surfaces.
P2Y receptors belong to the family of G protein-coupled receptors. HEK 293 cells endogenously express several isoforms of P2Y receptors. […] The arrow (540) indicates when the stimulus, an ATP solution, was introduced.
FIGS. 6A and 6B show the reproducibility and robustness of a cell assay of the disclosure using HEK293 cells that were cultured on a low-density gelatin-coated 384-well Epic™ biosensor microplate. A 10 micromolar ATP solution was added to selected well of column 15 of the microplate. The ATP-induced DMR response signals within one column (16 wells) were recorded in real time in seconds and plotted in FIG. 6A. The amplitudes of the initial positive DMR (P-DMR) event (wavelength shift) of the ATP-induced DMR signals were plotted as a function of well numbers 1-16 in FIG. 6B. The assay Coefficient of Variability (CV), or reproducibility, was about 4%, indicating a relatively high reproducibility, with an average signal of 193 picometers (pm), and a standard deviation of 8 pm.
To covalently couple RGD-like peptides to the biosensor surface, the biosensor was coated sequentially with a thin layer of silicon oxide (about 3 nm), aminopropylsilane (about 1-3 nm), poly(ethylene-alt-maleic anhydride) (EMA) (forming polymeric clusters), and finally a RGD-like peptide (Gly-Arg-Gly-Asp-Ser, GRGDS). Specifically, a thin layer of silicon oxide was deposited onto the Corning Epic™ niobium oxide waveguide surface up to 3 nm. Afterwards, the biosensor was coated with an aminopropylsilane solution of about 0.1 vol/vol %, washed and dried, followed by the interaction with an EMA solution of about 0.01 wt/vol %, and washed and dried. Finally, a GRGDS solution was applied to the EMA biosensor surface. […]

| Compound | optical signal after stimulation ([1]; 9 μM, Jurkat cells on anti-CD3, EMA and anti-CD3-EMA surfaces (FIG. 8A)) | optical signal after stimulation ([1]; Jurkat cells on bare SiOx/Nb2O5 surface (FIG. 8A)) | ATP-induced DMR signal, average signal (CHO-KCNQ cells; CHO-KCNQ cells cultured on discontinuous thin film of silicon dioxide particles on waveguide (FIG. 2B)) | ATP-induced DMR signal, average signal (CHO-KCNQ cells; CHO-KCNQ cells cultured on unmodified or bare niobia waveguide surface (FIG. 2A)) | amplitude of initial positive DMR (P-DMR) event, average signal ([2]; 10 micromolar ATP, HEK293 cells on low-density gelatin-coated 384-well Epic microplate, 16 wells (FIG. 6)) | ATP-induced DMR response intensity ([2]; 20 micromolar ATP, HEK293 cells on GRGDS-derivatized EMA surfaces made with 10, 30, 100, 250 micromolar GRGDS (FIG. 7)) | detection of ATP-induced DMR signals ([2]; HEK293 cells on low-, medium- and high-density gelatin-coated surfaces (FIG. 5)) |
| --- | --- | --- | --- | --- | --- | --- | --- |
| OH-lys-lys-trp-lys-met-arg-arg-asn-gln-phe-trp-ile-lys-ile-gln-arg-cys----cys-ser-val-glu-ile-trp-asp-OH [pseudo-RACK1] | significant optical signals | did not led to any detectable optical signal | – | – | – | – | – |
| Nc1ncnc2c1ncn2[C@@H]1O[C@H](COP(=O)(O)OP(=O)(O)OP(=O)(O)O)[C@@H](O)[C@H]1O [ATP, adenosine triphosphate] | – | – | 144 pm | 115 pm | 193 picometers (pm) | increasing response intensity | Only the low-density gelatin-coated surface enabled the detection |
